Data published in patent US11534441B2, “MAP4K1 inhibitors” (Blueprint Medicines Corporation, priority 2020, dated 2022).
pEC50, pIC50: −log10 of the molar value.

Assays:
expanded CD3+ T cells = test: T cell enhancement of cytokines: IL2 measurement (HTRF) in expanded CD3+ T cells stimulated with anti-CD3/anti-CD28; assay type: cell-based, human; conditions: IL-2 measurement
Procedure: T cells are isolated from whole blood of healthy donors by immunomagnetic negative selection following manufacture's protocol (StemCell Technologies, human T cell isolation kit). Purity of isolated cells is assessed by flow cytometry and yields 95-98% CD3^+ T cells. For expansion of T cells, 1×10^6 cells/well are plated in serum free cell expansion media (ThermoFisher) containing 30 U of recombinant human IL2 (R&D) and stimulated with 25 ul of CD3/CD28 beads (Invitrogen) in 24 well plates for 3-4 days. T cells are then expanded in 175 cm flasks and maintained at a cell density of 1 to 2.5×10^6 cells/ml days by addition of ⅔ of fresh media every 2-3 days. After 10-14 days, cells are frozen in BamBanker freezing media (Thermo) and stored in liquid nitrogen.
For IL2 measurement, expanded CD3^+ T cells are dispensed at 100K cells/well (cultured in X-VIVO 10 Serum-free media) and are stimulated with plate-bound anti-CD3 and soluble anti-CD28 in the presence of vehicle or compound of the disclosure at various concentrations for 24 h. As outlined in the manufacturer's protocol (Cisbio), 16 μL of conditioned media is transferred to a white 384-well low volume plate. Following a 24 h incubation with the anti-IL2 antibodies, the homogenous time resolved fluorescence (HTRF) is measured.

MAP4K1 (HPK1) = MAP4K1 (HPK1) (Homo sapiens (Human), UniProt Q92918); test: MAP4K1 (HPK1) biochemical enzymatic activity, electrophoretic mobility shift (EZReader 2), ATP at APPKM (26 μM)
Sequence of MAP4K1 (HPK1) (Q92918 whole entry): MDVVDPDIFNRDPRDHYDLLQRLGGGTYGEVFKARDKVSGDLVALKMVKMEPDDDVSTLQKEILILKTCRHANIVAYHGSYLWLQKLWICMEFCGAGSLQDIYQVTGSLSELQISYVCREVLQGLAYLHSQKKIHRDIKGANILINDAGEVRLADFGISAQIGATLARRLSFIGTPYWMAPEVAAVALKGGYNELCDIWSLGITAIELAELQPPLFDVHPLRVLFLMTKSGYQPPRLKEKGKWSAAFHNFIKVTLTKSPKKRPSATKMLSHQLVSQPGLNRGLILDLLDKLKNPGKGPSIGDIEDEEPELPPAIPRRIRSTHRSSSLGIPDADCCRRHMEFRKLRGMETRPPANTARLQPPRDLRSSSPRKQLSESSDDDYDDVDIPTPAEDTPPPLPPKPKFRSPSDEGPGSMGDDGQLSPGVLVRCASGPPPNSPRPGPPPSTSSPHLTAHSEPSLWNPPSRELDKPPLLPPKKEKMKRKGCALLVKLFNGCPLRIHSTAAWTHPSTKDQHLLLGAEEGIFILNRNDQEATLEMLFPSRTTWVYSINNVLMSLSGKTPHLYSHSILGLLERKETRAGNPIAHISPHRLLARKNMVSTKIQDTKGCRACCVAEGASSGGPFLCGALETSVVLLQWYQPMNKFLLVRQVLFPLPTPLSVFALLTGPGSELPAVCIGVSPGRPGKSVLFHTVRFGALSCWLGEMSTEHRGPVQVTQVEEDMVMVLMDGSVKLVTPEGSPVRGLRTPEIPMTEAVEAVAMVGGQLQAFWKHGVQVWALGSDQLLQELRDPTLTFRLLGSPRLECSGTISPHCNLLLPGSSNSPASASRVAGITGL
Description: MAP4K1 (HPK1) and relevant off-target enzymatic activity was monitored using the Perkin Elmer electrophoretic mobility shift technology platform—the EZReader 2. […] Within the linear, steady-state phase of the kinase enzymatic reaction, the mixed pool of phosphorylated (product) and non-phosphorylated (substrate) peptides was passed through the microfluidic system of the PerkinElmer EZ Reader 2, under an applied electric potential difference. The presence of the phosphate group on the product peptide provided a difference in mass and charge between that of the substrate peptide, resulting in a separation of the substrate and product pools in the sample (Perrin et al. 2010). As the product and substrate peptide mixture passes the lasers within the instrument, these pools are detected (λex=488 nm, λent=568 nm) and resolved as separate peaks. The ratio between these peaks reflects the activity of the compound at that concentration, in that well, under those conditions.
Inhibitors were dissolved in 100% DMSO at a stock concentration of 10 mM. A 100×, 10-point, 4-fold serial dilution of each inhibitor was created in 100% DMSO either manually or on a Hamilton STAR liquid handler, starting at a relevant concentration, usually 1 mM. A volume of 0.130 μL of each concentration was transferred to the relevant wells of a 384-well plate (Greiner 781 201) in duplicate using a TTPLabtech Mosquito nano-litre dispenser. Using a Multidrop Combi, the remaining constituents of the kinase reaction were added to the 130 nL of dosed compound as follows (see table below for final reaction details):
Enzyme activity assays at the ^APPKM for ATP or 1 mM ATP: In each well of a 384-well plate, 0.1-15 nM of untreated enzyme was incubated in a total of 13 μL of buffer (100 mM HEPES pH 7.5, 0.015% Brij 35, 10 mM MgCl2, 1 mM DTT) with 1.5 μM fluorescent peptid and 20-1000 μM ATP, at 25° C., for 60-180 minutes in the presence or absence of a dosed concentration series of compound (1% DMSO final concentration). The kinase reactions were stopped by the addition of 70 μl of Stop buffer (100 mM HEPES pH 7.5, 0.015% Brij 35, 35 mM EDTA and 0.2% of Coating Reagent 3 (Caliper Lifesciences)). The plates were read on a Caliper EZReader 2 as described above.

[1] = Homo sapiens, T-cell, class designation
[2] = Homo sapiens, T-cell, numeric value

Structure (SMILES)	pEC50 (expanded CD3+ T cells; class designation)	pEC50 (expanded CD3+ T cells; numeric value)	pIC50 (MAP4K1 (HPK1); class designation)	pIC50 (MAP4K1 (HPK1); numeric value)	pEC50 (expanded CD3+ T cells; [1])	pEC50 (expanded CD3+ T cells; [2])
COc1ncc(C(C)(C)N)c2cc(Nc3ccc4c(n3)[C@@H](C)COC4=O)ncc12 (single isomer, unassigned) [Compound 22]	7.35 to 7.45	7.44	9.00 to 9.51	9.30	–	–
COc1ncc(C(C)(C)N)c2cc(Nc3ccc4c(n3)[C@@H](C)COC4=O)ncc12 (single isomer, unassigned) [Compound 23]	> 7.46	8.31	> 9.52	9.96	–	–
COc1ncc(C(C)(C)N)c2cc(Nc3ccc4c(n3)C[C@@H](C)OC4=O)ncc12 (single isomer, unassigned) [Compound 24]	> 7.46	7.95	9.00 to 9.51	9.33	–	–
COc1ncc(C(C)(C)N)c2cc(Nc3ccc4c(n3)C[C@H](C)OC4=O)ncc12 (single isomer, unassigned) [Compound 25]	> 7.46	8.48	> 9.52	9.54	–	–
COc1ncc(C(C)(C)N)c2cc(Nc3ccc4c(n3)[C@@H](C)[C@@H](C)OC4=O)ncc12 (single isomer, unassigned) [Compound 39]	> 7.46	7.79	9.00 to 9.51	9.07	–	–
COc1ncc(C(C)(C)N)c2cc(Nc3ccc4c(n3)[C@H](C)[C@H](C)OC4=O)ncc12 (single isomer, unassigned) [Compound 40]	> 7.46	8.40	> 9.52	9.82	–	–
CCOc1ncc(C(C)(C)N)c2cc(Nc3ccc4c(n3)C[C@H](C)OC4=O)ncc12 (single isomer, unassigned) [Compound 41]	> 7.46	7.64	9.00 to 9.51	9.24	–	–
CCOc1ncc(C(C)(C)N)c2cc(Nc3ccc4c(n3)C[C@@H](C)OC4=O)ncc12 (single isomer, unassigned) [Compound 42]	> 7.46	7.87	9.00 to 9.51	9.07	–	–
CCOc1ncc(C(C)(C)N)c2cc(Nc3ccc4c(n3)[C@@H](C)COC4=O)ncc12 (single isomer, unassigned) [Compound 43]	> 7.46	8.08	> 9.52	9.64	–	–
CCOc1ncc(C(C)(C)N)c2cc(Nc3ccc4c(n3)[C@H](C)COC4=O)ncc12 (single isomer, unassigned) [Compound 44]	> 7.46	7.66	8.00 to 8.96	8.92	–	–
CCOc1ncc(C(C)(C)N)c2cc(Nc3ccc4c(n3)[C@@H](C)[C@@H](C)OC4=O)ncc12 (single isomer, unassigned) [Compound 59]	< 7.26	7.25	8.00 to 8.96	8.47	–	–
CCOc1ncc(C(C)(C)N)c2cc(Nc3ccc4c(n3)[C@H](C)[C@H](C)OC4=O)ncc12 (single isomer, unassigned) [Compound 60]	> 7.46	7.99	> 9.52	9.74	–	–
CC[C@@](C)(N)c1cnc(OC)c2cnc(Nc3ccc4c(n3)CC(C)(C)OC4=O)cc12 (single isomer, unassigned) [Compound 61]	> 7.46	8.46	> 9.52	9.82	–	–
C[C@@H]1OC(=O)c2ccc(Nc3cc4c([C@](C)(N)C5CC5)cnc(OC5CC5)c4cn3)nc2[C@H]1C (single isomer, unassigned) [Compound 75]	–	–	–	10.05	> 7.46	8.14
C[C@@H]1c2nc(Nc3cc4c([C@](C)(N)C5CC5)ncc(OC5CC5)c4cn3)ccc2C(=O)OC1(C)C (single isomer, unassigned) [Compound 76]	–	–	–	9.92	> 7.46	8.19
C[C@](N)(c1cnc(OC2CC2)c2cnc(Nc3ccc4c(n3)CCNC4=O)cc12)C1CC1 (single isomer, unassigned) [Compound 106]	–	–	–	9.21	7.35 to 7.45	7.38
C[C@H]1COC(=O)c2ccc(Nc3cc4c([C@](C)(N)C5CC5)cnc(OC5CC5)c4cn3)nc21 (single isomer, unassigned) [Compound 117]	–	–	> 9.52	–	> 7.46	7.80
C[C@@H]1COC(=O)c2ccc(Nc3cc4c([C@](C)(N)C5CC5)cnc(OC5CC5)c4cn3)nc21 (single isomer, unassigned) [Compound 118]	< 7.26	7.09	8.00 to 8.96	8.89	–	–
CC[C@@](C)(N)c1cnc(OC2CC2)c2cnc(Nc3ccc4c(n3)CC(C)(C)OC4=O)cc12 (single isomer, unassigned) [Compound 132]	> 7.46	7.89	> 9.52	9.74	–	–
C[C@](N)(c1cnc(OC2CC2)c2cnc(Nc3ccc4c(n3)C3(CC3)COC4=O)cc12)C1CC1 (single isomer, unassigned) [Compound 146]	–	–	–	9.60	< 7.26	7.22
C[C@](N)(c1cnc(OC2CC2)c2cnc(Nc3ccc4c(n3)CC3(CC3)OC4=O)cc12)C1CC1 (single isomer, unassigned) [Compound 147]	–	–	–	9.57	7.35 to 7.45	7.34
CC1(C)COC(=O)c2ccc(Nc3cc4c([C@](C)(N)C5CC5)cnc(OC5CC5)c4cn3)nc21 (single isomer, unassigned) [Compound 151]	–	–	–	9.66	> 7.46	7.56
CC[C@]1(C)OC(=O)c2ccc(Nc3cc4c([C@](C)(N)C5CC5)cnc(OC5CC5)c4cn3)nc21 (single isomer, unassigned) [Compound 152]	< 7.26	7.26	9.00 to 9.51	9.38	–	–
C[C@@H]1c2nc(Nc3cc4c([C@](C)(N)C5CC5)cnc(OC5CC5)c4cn3)ccc2C(=O)O[C@@H]1C (single isomer, unassigned) [Compound 154]	> 7.46	7.96	> 9.52	10.10	–	–
C[C@@H]1OC(=O)c2ccc(Nc3cc4c([C@](C)(N)C5CC5)cnc(OC5CC5)c4cn3)nc2[C@@H]1C (single isomer, unassigned) [Compound 155]	< 7.26	7.05	9.00 to 9.51	9.01	–	–
C[C@H]1OC(=O)c2ccc(Nc3cc4c([C@](C)(N)C5CC5)cnc(OC5CC5)c4cn3)nc2C12CC2 (single isomer, unassigned) [Compound 167]	> 7.46	8.03	> 9.52	10.30	–	–
C[C@H]1OC(=O)c2ccc(Nc3cc4c([C@](C)(N)C5CC5)cnc(OC5CC5)c4cn3)nc2C1(C)C (single isomer, unassigned) [Compound 171]	> 7.46	7.56	> 9.52	10.15	–	–
CC[C@@](C)(N)c1cnc(OCC(F)(F)F)c2cnc(Nc3ccc4c(n3)[C@@H](C)[C@H](C)OC4=O)cc12 (single isomer, unassigned) [Compound 181]	–	–	> 9.52	–	> 7.46	7.82
CC[C@@](C)(N)c1cnc(OCC(F)(F)F)c2cnc(Nc3ccc4c(n3)[C@@H](C)[C@H](C)OC4=O)cc12 (single isomer, unassigned) [Compound 182]	7.35 to 7.45	7.41	8.00 to 8.96	8.53	–	–
